Broadly, the inhibition is the share of the control response that was lost under treatment. As a reminder, the melting point is the temperature of the solid-liquid transition.

One series concerns IL-6. As to the kind of experiment: IL-6 production in LPS-stimulated human whole blood. The format is cell-based. The note with it: LPS 4 h. How it is done:
This assay determines the effect of test compounds on the production of IL-6 from human whole blood. Compounds are tested for their ability to downregulate the production of IL-6 in activated whole blood. The test compounds are pre-incubated for 15 minutes at 37° C. and then stimulated with Lipopolysaccharide (Salmonella abortus equi, 1 μg/ml) for 4 h at 37° C. in 5% CO2. The levels of Interleukin-6 are estimated using Enzyme linked Immunosorbent assay performed in a 96 well format as per the procedure of the manufacturer (Cayman Chemical, Ann Arbor, USA).

A further series has as its target T1, COX-2 (Homo sapiens, UniProt P35354).
T1 construct: incubation of human blood with lipopolysaccharide (LPS), which induces COX-2 production in the blood; endogenous in cells; host or cells: fresh human whole blood from volunteers, treated with aspirin and then LPS
T1 sequence (P35354 18-604): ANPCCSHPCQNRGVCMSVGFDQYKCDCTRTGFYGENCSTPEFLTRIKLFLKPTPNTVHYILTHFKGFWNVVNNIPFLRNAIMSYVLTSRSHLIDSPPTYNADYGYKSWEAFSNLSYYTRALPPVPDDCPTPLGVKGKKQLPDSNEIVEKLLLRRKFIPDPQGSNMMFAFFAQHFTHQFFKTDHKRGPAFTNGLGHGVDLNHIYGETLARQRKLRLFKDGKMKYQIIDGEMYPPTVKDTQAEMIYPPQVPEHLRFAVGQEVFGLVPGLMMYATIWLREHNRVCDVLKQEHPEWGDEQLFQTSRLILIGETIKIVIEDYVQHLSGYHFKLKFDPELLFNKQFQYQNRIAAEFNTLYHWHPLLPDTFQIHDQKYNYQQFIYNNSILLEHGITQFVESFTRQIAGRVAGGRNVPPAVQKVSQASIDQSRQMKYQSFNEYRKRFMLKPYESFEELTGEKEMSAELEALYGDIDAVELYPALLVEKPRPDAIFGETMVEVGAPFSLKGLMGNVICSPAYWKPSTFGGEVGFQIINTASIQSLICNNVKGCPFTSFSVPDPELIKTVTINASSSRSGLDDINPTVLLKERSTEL
In words: Human whole blood assay, COX-2 inhibition (PGE2 ELISA after LPS). The format is cell-based. The note with it: LPS 24 h. In short, it runs like this: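 Fresh EDTA blood from healthy male donors was given aspirin (10 μg/ml) to inactivate COX-1. LPS (10 μg/ml) was then added together with test agent or vehicle, and the blood was incubated 24 h at 37° C. Plasma PGE2 was measured by ELISA.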
On the technique in general: ELISA stands for enzyme-linked immunosorbent assay.

Series [1] has as its system Male Wistar rats. As to the kind of experiment: Gastroulcerogenic potential (stomach lesions after the paw edema test). The format is in vivo. The note with it: 10 mg/kg body weight, oral, rat. How it is done:
(§1) The carrageenan paw edema test is performed as described by Winter et al (Proc. Soc. Exp. Biol. Med, 111, 544, 1962). Male Wistar rats are selected and the body weights are equivalent within each group. The rats are fasted for eighteen hours with free access to water. The rats are dosed orally with the test compound suspended in vehicle containing 0.5% methylcellulose. The control rats are administered the vehicle alone. After an hour, the rats are injected with 0.1 ml of 1% Carrageenan solution in 0.9% saline into the sub-plantar surface of the right hind paw. Paw volume is measured using water plethysmograph before and after 3 hours of carrageenan injection. The average of foot swelling in drug treated animals is compared with that of control animals. Anti-inflammatory activity is expressed as the percentage inhibition of edema compared with control group [Arzneim-Forsch/Drug Res., 43(I), 1, 44-50,1993; Ottemess and Bliven, Laboratory Models for Testing NSAIDs, In Non-Steroidal Anti-Inflammatory Drugs, (J. Lombardino, ed. 1985)]. In order to evaluate their role on the ulcer formation, the animals are sacrificed and the stomach is taken out and flushed with 1% formalin. The stomach is opened along the greater curvature. The haemorrhagic puncta and sulci are identified microscopically and images are captured. The stomach lesions are calculated.

Series [2] has as its system Male Wistar rats. As to the kind of experiment: Rat carrageenan paw edema test. In kind it is in vivo. Conditions: 10 mg/kg body weight, oral, paw volume 3 hours after carrageenan, read-out: Rat Paw Edema model % inhibition. How it is done:
Rat Carrageenan Paw Edema Test
as §1

Another series has as its system TNF-α. As to the kind of experiment: TNF-α production in LPS-stimulated human whole blood. The format is cell-based. Conditions: LPS 4 h. In short, it runs like this: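 Human whole blood pre-incubated with compound 15 min at 37° C., then stimulated with LPS (Salmonella abortus equi, 1 μg/ml) for 4 h at 37° C. in 5% CO2. TNF-α quantified by ELISA.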

`CSc1nc(-c2ccc(S(C)(=O)=O)cc2)n(-c2ccc(C)cc2)c(=O)c1C#N` [Example 7, 5-cyano-2-[(4-methylsulphonyl)phenyl]-4-(methylthio)-1-(4-methylphenyl)-6-oxo-1,6-dihydropyrimidine] yielded a melting point of 242 to 244 °C. The compound further displayed an inhibition at 1 µM with IL-6 of 37.1%. This compound returned an inhibition at 0.25 µM on COX-2 (0.25 μM) of 31.7%. For the same compound, the “Gastroulcerogenic potential (% incidence of ulceration)” value in the series on Male Wistar rats [1] is reported as 25%. Further, in the series with Male Wistar rats [2], the inhibition in vivo at 10 mg/kg was determined as 28.1%.

The compound `CSc1ccc(-n2c(-c3ccc(Cl)cc3)nc(SC)c(C#N)c2=O)cc1` [Example 1, 5-cyano-2-(4-chlorophenyl)-4-(methylthio)-1-[4-(methylthio)phenyl]-6-oxo-1,6-dihydropyrimidine] registered a melting point of 206 to 207 °C. For the same compound, 0.1 µM produced 52.8% inhibition with IL-6 (0.1 μM). In addition, at COX-2, the inhibition at 10 µM came to 13%. Moreover, the “Gastroulcerogenic potential (% incidence of ulceration)” value in the series on Male Wistar rats [1] turned out to be 75%. The compound also came in with an inhibition at 0.1 µM in the series with TNF-α (0.1 μM) of 56.9%. Further, the inhibition in vivo at 10 mg/kg in the series with Male Wistar rats [2] amounted to 29%.

In the case of `CSc1ccc(-c2nc(SC)c(C#N)c(=O)n2-c2ccc(C(C)C)cc2)cc1` [Example 9, 5-cyano-1-(4-isopropylphenyl)-4-(methylthio)-2-[4-(methylthio)phenyl]-6-oxo-1,6-dihydropyrimidine], the melting point lay within 180 to 181 °C. Further, the inhibition at 0.25 µM with IL-6 is 31.1%. For the same compound, in the series on Male Wistar rats [1], the “Gastroulcerogenic potential (% incidence of ulceration)” value is 0%. For the same compound, the inhibition in vivo at 10 mg/kg in the series with Male Wistar rats [2] came out at 37.2%.

Compound `CSc1ccc(-n2c(-c3ccc(C(F)(F)F)cc3)nc(SC)c(C#N)c2=O)cc1` [Example 4] yielded a melting point of 228 to 229 °C. In the series with IL-6, this compound yielded an inhibition at 0.25 µM of 48.4%. The compound also returned an inhibition at 10 µM at COX-2 of 50.1%. In addition, the “Gastroulcerogenic potential (% incidence of ulceration)” value with Male Wistar rats [1] was determined as 25%. The inhibition in vivo at 10 mg/kg in the series on Male Wistar rats [2] was 38.5%.

Take `CSc1ccc(-c2nc(SC)c(C#N)c(=O)n2-c2ccc(C)cc2)cc1` [Example 6, 5-cyano-1-(4-methylphenyl)-4-(methylthio)-2-[4-(methylthio)phenyl]-6-oxo-1,6-dihydropyrimidine]: the melting point fell in the range of 196 to 198 °C. This compound gave an inhibition at 0.25 µM in the series with IL-6 of 41.4%. On COX-2, testing at 1 µM gave an inhibition of 55.7%. Also, the “Gastroulcerogenic potential (% incidence of ulceration)” value in the series with Male Wistar rats [1] is on record as 25%. At 1 µM the inhibition in the series on TNF-α (1 μM) was 28.8%. Besides, the inhibition in vivo at 10 mg/kg in the series on Male Wistar rats [2] came out at 40.2%.

In the case of `CSc1ccc(-c2nc(SC)c(C#N)c(=O)n2-c2ccc(C)c(C)c2)cc1` [Example 10, 5-cyano-1-(3,4-dimethylphenyl)-4-(methylthio)-2-[4-(methylthio)phenyl]-6-oxo-1,6-dihydropyrimidine], the melting point was 234 to 236 °C. The compound further displayed an inhibition at 1 µM with IL-6 of 48.6%. In addition, at COX-2 (0.1 μM), the inhibition at 0.1 µM came to 62.8%. In addition, in the series with Male Wistar rats [1], the “Gastroulcerogenic potential (% incidence of ulceration)” value was 0%. The compound further displayed an inhibition at 10 µM in the series with TNF-α (10 μM) of 26.4%. Further, in the series with Male Wistar rats [2], the inhibition in vivo at 10 mg/kg was determined as 68.6%.

Compound `CSc1ccc(-c2nc(SC)c(C#N)c(=O)n2-c2ccc(F)cc2)cc1` [Example 5, 5-cyano-2-[(4-methylthio)phenyl]-4-(methylthio)-1-[4-fluorophenyl]-6-oxo-1,6-dihydropyrimidine] came in with a melting point of 219 to 221 °C. This compound also had an inhibition at 0.25 µM with IL-6 of 51%. On COX-2, this compound came in with an inhibition at 1 µM of 40.5%. Besides, in the series on Male Wistar rats [1], the “Gastroulcerogenic potential (% incidence of ulceration)” value is 37.5%. Moreover, the inhibition in vivo at 10 mg/kg with Male Wistar rats [2] was found to be 13.3%.

Compound `CSc1ccc(-n2c(-c3ccc(F)cc3)nc(SC)c(C#N)c2=O)cc1` [Example 2, 5-cyano-2-(4-fluorophenyl)-4-(methylthio)-1-[4-(methylthio)phenyl]-6-oxo-1,6-dihydropyrimidine] had a melting point of 204 to 207 °C. This compound yielded an inhibition at 0.25 µM in the series on IL-6 of 45%. Besides, 1 µM produced 53.4% inhibition on COX-2. Besides, the “Gastroulcerogenic potential (% incidence of ulceration)” value in the series on Male Wistar rats [1] is on record as 25%. Moreover, the inhibition in vivo at 10 mg/kg in the series with Male Wistar rats [2] was found to be 39%.

The record behind these values is US7365069B2, “Pyrimidone derivatives” (Bexel Pharmaceuticals Inc., priority 2002, dated 2008).
